Source: patent US12590091B2, “1H-pyrrolo[3,2-C]pyridine and 1H-pyrrolo[2,3-C]pyridine derivatives as TLR9 inhibitors for the treatment of fibrosis” (BRISTOL-MYERS SQUIBB COMPANY, priority 2020, dated 2026)
pIC50: −log10 of the molar value.

Assays:
human TLR7 = target: T1, human TLR7 (Homo sapiens, UniProt Q9NYK1); experiment: TLR7 inhibition reporter assay (HEK-Blue cells, SEAP reporter); assay type: cell-based; details: HEK-Blue cells overexpressing human TLR7, stimulated with gardiquimod 7.5 μM, 22 hour incubation
T1 construct: host or cells: HEK-Blue cells
T1 sequence (Q9NYK1 27-1049): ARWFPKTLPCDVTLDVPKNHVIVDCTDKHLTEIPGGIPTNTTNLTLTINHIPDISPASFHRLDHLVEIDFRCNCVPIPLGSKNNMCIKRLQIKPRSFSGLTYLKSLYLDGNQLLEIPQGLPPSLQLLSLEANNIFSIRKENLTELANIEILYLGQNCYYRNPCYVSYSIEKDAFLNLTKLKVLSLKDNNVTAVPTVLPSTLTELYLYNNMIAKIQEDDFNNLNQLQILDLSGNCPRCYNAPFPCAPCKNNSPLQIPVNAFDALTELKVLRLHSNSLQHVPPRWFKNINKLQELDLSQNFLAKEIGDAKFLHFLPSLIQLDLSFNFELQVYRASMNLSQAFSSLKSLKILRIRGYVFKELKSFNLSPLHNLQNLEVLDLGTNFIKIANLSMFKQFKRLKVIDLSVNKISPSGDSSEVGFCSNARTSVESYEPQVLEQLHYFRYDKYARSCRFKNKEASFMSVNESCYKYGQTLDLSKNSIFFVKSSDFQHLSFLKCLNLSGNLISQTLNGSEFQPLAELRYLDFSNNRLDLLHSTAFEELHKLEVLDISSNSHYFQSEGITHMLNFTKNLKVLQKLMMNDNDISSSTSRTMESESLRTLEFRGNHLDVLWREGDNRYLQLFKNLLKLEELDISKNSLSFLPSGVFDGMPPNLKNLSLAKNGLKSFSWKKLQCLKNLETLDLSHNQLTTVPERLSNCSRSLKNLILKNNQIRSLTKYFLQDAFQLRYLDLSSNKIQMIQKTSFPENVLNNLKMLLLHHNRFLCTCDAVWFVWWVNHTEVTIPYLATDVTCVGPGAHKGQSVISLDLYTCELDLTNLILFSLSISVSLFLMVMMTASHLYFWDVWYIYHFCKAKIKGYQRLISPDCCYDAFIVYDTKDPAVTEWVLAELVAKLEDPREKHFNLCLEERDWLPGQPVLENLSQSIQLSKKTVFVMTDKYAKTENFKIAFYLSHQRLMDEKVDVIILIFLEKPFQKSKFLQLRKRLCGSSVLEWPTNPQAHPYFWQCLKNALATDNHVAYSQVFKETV
Method in brief: (§1)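 Compound treatment: 30 min, RT, 0.05 nM–50 μM final. Agonist: TLR7 gardiquimod 7.5 μM; TLR8 R848 15.9 μM; TLR9 ODN2006 5 nM. Incubation 22 h, 37 °C, 5% CO2. Readout SEAP, HEK-Blue Detection.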

human TLR8 = target: T2, human TLR8 (Homo sapiens, UniProt Q9NR97); experiment: TLR8 inhibition reporter assay (HEK-Blue cells, SEAP reporter); assay type: cell-based; details: HEK-Blue cells overexpressing human TLR8, stimulated with R848 15.9 μM, 22 hour incubation
T2 construct: host or cells: HEK-Blue cells
T2 sequence (Q9NR97 27-1041): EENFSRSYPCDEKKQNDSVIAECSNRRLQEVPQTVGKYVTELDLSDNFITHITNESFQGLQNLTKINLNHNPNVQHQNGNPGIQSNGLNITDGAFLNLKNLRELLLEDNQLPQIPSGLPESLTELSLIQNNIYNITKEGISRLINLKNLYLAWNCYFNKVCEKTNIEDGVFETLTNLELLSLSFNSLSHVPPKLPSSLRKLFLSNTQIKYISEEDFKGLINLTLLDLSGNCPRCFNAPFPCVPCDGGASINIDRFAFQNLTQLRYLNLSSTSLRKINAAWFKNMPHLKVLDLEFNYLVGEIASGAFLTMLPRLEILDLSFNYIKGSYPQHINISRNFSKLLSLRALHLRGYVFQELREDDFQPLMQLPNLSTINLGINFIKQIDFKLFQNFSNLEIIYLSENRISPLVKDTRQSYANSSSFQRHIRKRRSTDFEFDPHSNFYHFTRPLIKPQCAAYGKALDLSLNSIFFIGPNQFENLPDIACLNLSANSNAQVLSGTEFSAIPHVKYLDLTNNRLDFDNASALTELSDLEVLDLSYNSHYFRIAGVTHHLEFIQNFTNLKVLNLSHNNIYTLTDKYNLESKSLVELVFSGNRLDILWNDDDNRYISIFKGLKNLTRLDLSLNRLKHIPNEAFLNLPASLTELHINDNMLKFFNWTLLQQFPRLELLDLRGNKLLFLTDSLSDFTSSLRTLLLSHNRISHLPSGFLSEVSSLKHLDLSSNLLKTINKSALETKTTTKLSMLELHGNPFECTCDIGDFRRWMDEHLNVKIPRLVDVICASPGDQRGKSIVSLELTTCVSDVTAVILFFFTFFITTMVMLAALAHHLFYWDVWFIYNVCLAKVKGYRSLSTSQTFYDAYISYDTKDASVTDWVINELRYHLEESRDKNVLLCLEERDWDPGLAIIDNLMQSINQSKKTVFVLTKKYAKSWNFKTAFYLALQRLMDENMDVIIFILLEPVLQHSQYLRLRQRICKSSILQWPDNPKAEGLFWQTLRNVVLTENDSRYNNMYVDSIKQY
Method in brief: as §1

pIC50 (human TLR7) | pIC50 (human TLR8) | SMILES
4.84 | 5.09 | COc1ccc(-c2cc3cnc(-c4ccc(N5CCN(C(=O)c6ccccc6)CC5)cc4)cc3n2C)cc1OC [Example 29, (4-(4-(2-(3,4-dimethoxyphenyl)-1-methyl-1H-pyrrolo[3,2-c]pyridin-6-yl)phenyl)piperazin-1-yl)(phenyl)methanone]
5.82 | 6.15 | Cc1nc(-c2ccc([C@]3(O)CCN(C(C)C)C(C)(C)C3)c(F)c2)cc2c1cc(-c1ccc(S(C)(=O)=O)cc1)n2C [Example 106, (S)-4-(4-(1,4-dimethyl-2-(4-(methylsulfonyl)phenyl)-1H-pyrrolo[3,2-c]pyridin-6-yl)-2-fluorophenyl)-1-isopropyl-2,2-dimethylpiperidin-4-ol]
5.49 | 5.42 | COc1ccc(-c2cc3cnc(-c4ccc(N5CCN(C(C)C)CC5)cc4)cc3n2C)cc1OC [Example 24, 2-(3,4-dimethoxyphenyl)-6-(4-(4-isopropylpiperazin-1-yl)phenyl)-1-methyl-1H-pyrrolo[3,2-c]pyridine]
5.28 | < 4.30 | COc1ccc(-c2c(C)n(C)c3cnc(C4CCN(C5CCN(C(=O)c6ccccc6)CC5)CC4)cc23)cc1OC [Example 19, (4-(3-(3,4-dimethoxyphenyl)-1,2-dimethyl-1H-pyrrolo[2,3-c]pyridin-5-yl)-[1,4′-bipiperidin]-1′-yl)(phenyl)methanone]
4.86 | 5.28 | COc1ccc(-c2cc3cnc(-c4ccc(N5CCN(C6CCC6)CC5)cc4)cc3n2C)cc1OC [Example 10, 6-(4-(4-Cyclobutylpiperazin-1-yl)phenyl)-2-(3,4-dimethoxyphenyl)-1-methyl-1H-pyrrolo[3,2-c]pyridine]
5.04 | < 4.30 | CCOC(=O)N1CCC(N2CCC(c3cc4c(-c5ccc(OC)c(OC)c5)c(C)n(C)c4cn3)CC2)CC1 [Example 20, ethyl 4-(3-(3,4-dimethoxyphenyl)-1,2-dimethyl-1H-pyrrolo[2,3-c]pyridin-5-yl)-[1,4′-bipiperidine]-1′-carboxylate]
5.82 | 5.22 | Cc1nc(-c2ccc(N3CCN4CCCC4C3)c(F)c2F)cc2c1cc(-c1ccc(S(C)(=O)=O)cc1)n2C (stereo not drawn) [Example 99, 6-(2,3-difluoro-4-(hexahydropyrrolo[1,2-a]pyrazin-2(1H)-yl)phenyl)-1,4-dimethyl-2-(4-(methylsulfonyl)phenyl)-1H-pyrrolo[3,2-c]pyridine]
5.15 | 5.89 | Cc1nc(-c2ccc(C3(O)CC4CCC(C3)N4C(C)C)c(F)c2)cc2c1cc(-c1ccc(S(C)(=O)=O)cc1)n2C [Example 100, (1R,3r,5S)-3-(4-(1,4-dimethyl-2-(4-(methylsulfonyl)phenyl)-1H-pyrrolo[3,2-c]pyridin-6-yl)-2-fluorophenyl)-8-isopropyl-8-azabicyclo[3.2.1]octan-3-ol]
5.09 | < 4.30 | COc1ccc(-c2c(C)[nH]c3cnc(C4CCN(C5CCN(C(=O)c6ccccc6)CC5)CC4)cc23)cc1OC [Example 14, (4-(3-(3,4-dimethoxyphenyl)-2-methyl-1H-pyrrolo[2,3-c]pyridin-5-yl)-[1,4′-bipiperidin]-1′-yl) (phenyl)methanone]
5.77 | 5.09 | CC(C)N1CCN(c2ccc(-c3cc4c(cc(-c5ccc(S(C)(=O)=O)cc5)n4C)c(C(C)(C)O)n3)cc2)CC1 [Example 118, 2-[6-[4-(4-isopropylpiperazin-1-yl)phenyl]-1-methyl-2-(4-methylsulfonylphenyl)pyrrolo[3,2-c]pyridin-4-yl]propan-2-ol]
5.64 | < 4.30 | COc1ccc(-c2c(C)n(C)c3cnc(C4CCN(C5CCN(CC(C)C)CC5)CC4)cc23)cc1OC [Example 17, 3-(3,4-dimethoxyphenyl)-5-(1′-isobutyl-[1,4′-bipiperidin]-4-yl)-1,2-dimethyl-1H-pyrrolo[2,3-c]pyridine]
5.66 | 5.68 | Cc1nc(-c2ccc(C3(O)CCN(C(C)(C)C)CC3)c(F)c2)cc2c1cc(-c1ccc(S(C)(=O)=O)cc1)n2C [Example 104, 1-(tert-butyl)-4-(4-(1,4-dimethyl-2-(4-(methylsulfonyl)phenyl)-1H-pyrrolo[3,2-c]pyridin-6-yl)-2-fluorophenyl)piperidin-4-ol]
